Patent US6680282B2 (priority 1997, dated 2004)

Key:
Pyricularia oryzae [1] = assay: whole plant or invertebrate; type: in vivo; conditions: for rank (control effect, protective value from lesion number): 100 ppm spray, rice seedling (Jikkoku) 4-leaf stage, lesion number on fourth leaf 6 days after inoculation
Pyricularia oryzae [2] = type: cell-based; conditions: 100 ppm in potato dextrose agar, 28 or 22° C., 48 hours
Cochlioborus miyabeanus = type: cell-based; conditions: 100 ppm in potato dextrose agar, 28 or 22° C., 48 hours
[3] = system: Alternaria alternata Japanese pear pathotype; type: cell-based; conditions: 100 ppm in potato dextrose agar, 28 or 22° C., 48 hours
Description: (§1) Test for Antifungal Activity
(§2) A test compound dissolved in acetone was mixed in a potato dextrose agar medium (manufactured by Nissui Seiyaku K. K.) so that the final concentration of the test compound was 100 ppm and then poured in a Petri dish. To this Perti dish after the agar was completely solidified, a cylindrical section prepared by punching a mycelial colony of each of plant pathogenic fungi cultured in another Petri dish by means of a cork borer was inoculated and cultured at 28 or 22° C. 48 Hours after the inoculation, the diameter of the mycelial colony was determined. Control percentages were calculated by comparing the diameter of the mycelial colony in a treated area with that in an untreated area. And, antifungal effect was ranked according to the following criterion.
(§3) A; control percentage ≧80%
(§4) B; control percentage 50 to 79%
(§5) C; control percentage <50%

Botrytis cinerea = type: cell-based; conditions: 100 ppm in potato dextrose agar, 28 or 22° C., 48 hours
Description: as §1, §2, §3, §4, §5

[4] = system: Colletotrichum atramentarium; type: cell-based; conditions: 100 ppm in potato dextrose agar, 28 or 22° C., 48 hours
Description: as §1, §2, §3, §4, §5

[5] = system: Fusarium oxysporum f. sp. lycopersici; type: cell-based; conditions: 100 ppm in potato dextrose agar, 28 or 22° C., 48 hours
Description: as §1, §2, §3, §4, §5

Gibberella fujikuroi = type: cell-based; conditions: 100 ppm in potato dextrose agar, 28 or 22° C., 48 hours
Description: as §1, §2, §3, §4, §5

Glomerella cingalata = type: cell-based; conditions: 100 ppm in potato dextrose agar, 28 or 22° C., 48 hours
Description: as §1, §2, §3, §4, §5

Rhizoctonia solani = type: cell-based; conditions: 100 ppm in potato dextrose agar, 28 or 22° C., 48 hours
Description: as §1, §2, §3, §4, §5

Sclerotinia minor = type: cell-based; conditions: 100 ppm in potato dextrose agar, 28 or 22° C., 48 hours
Description: as §1, §2, §3, §4, §5

Verticillium aibo-atrum = type: cell-based; conditions: 100 ppm in potato dextrose agar, 28 or 22° C., 48 hours
Description: as §1, §2, §3, §4, §5

Sphaerotheca fuliginea = assay: Test for control effect against powdery mildew of Cucurbitaceae (spray on cucumber seedlings); type: in vivo; conditions: 200 ppm spray, cucumber first foliage leaf, 10 days after inoculation
Source text: Test for Control Effect Against Powdery Mildew of Cucurbitaceae
A spray liquid comprising a test compound whose concentration was adjusted to be 200 ppm by dilution with water was sprayed to a cucumber grown in a vinyl pot of 3 cm in diameter when its first foliage leaf was developed. The air-dried cucumber seedling was inoculated with a conidium suspension of Sphaerotheca fuliginea. Thereafter, the cucumber seedling was transferred in an air-conditioned greenhouse. 10 Days after the inoculation, the disease severity was observed. The protective value was calculated by comparing the disease severity in a treated area with that in an untreated area. Then, control effect was ranked according to the following criterion.
B; protective value 50 to 79%

Compound | rank (control effect, protective value from lesion number) (Pyricularia oryzae [1]) | rank (antifungal effect, control percentage of mycelial colony diameter) (Pyricularia oryzae [2]) | rank (antifungal effect, control percentage of mycelial colony diameter) (Cochlioborus miyabeanus) | rank (antifungal effect, control percentage of mycelial colony diameter) [3] | rank (antifungal effect, control percentage of mycelial colony diameter) (Botrytis cinerea) | rank (antifungal effect, control percentage of mycelial colony diameter) [4] | rank (antifungal effect, control percentage of mycelial colony diameter) [5] | rank (antifungal effect, control percentage of mycelial colony diameter) (Gibberella fujikuroi) | rank (antifungal effect, control percentage of mycelial colony diameter) (Glomerella cingalata) | rank (antifungal effect, control percentage of mycelial colony diameter) (Rhizoctonia solani) | rank (antifungal effect, control percentage of mycelial colony diameter) (Sclerotinia minor) | rank (antifungal effect, control percentage of mycelial colony diameter) (Verticillium aibo-atrum) | rank (control effect, protective value from disease severity) (Sphaerotheca fuliginea) | pest or weed control at 100 ppm (Pyricularia oryzae [1]; Pyricularia oryzae, foliar, 144 h, read-out: rank (control effect, protective value from lesion number)) [%]
CCCCc1ccc2nc(C)c(C)c(O)c2c1 [Compound No. 28] | A (protective value ≧80%) | B (control percentage 50 to 79%) | C (control percentage <50%) | C (control percentage <50%) | C (control percentage <50%) | B (control percentage 50 to 79%) | C (control percentage <50%) | C (control percentage <50%) | B (control percentage 50 to 79%) | C (control percentage <50%) | C (control percentage <50%) | A (control percentage ≧80%) | – | –
CCc1ccc2nc(C)c(C)c(OC(C)=O)c2c1 [Compound No. 10] | A (protective value ≧80%) | A (control percentage ≧80%) | B (control percentage 50 to 79%) | C (control percentage <50%) | C (control percentage <50%) | B (control percentage 50 to 79%) | C (control percentage <50%) | C (control percentage <50%) | B (control percentage 50 to 79%) | C (control percentage <50%) | C (control percentage <50%) | C (control percentage <50%) | – | –
CCCCc1ccc2nc(C)c(C)c(OC(=O)C3CC3)c2c1 [compound 31] | A (protective value ≧80%) | A (control percentage ≧80%) | A (control percentage ≧80%) | A (control percentage ≧80%) | A (control percentage ≧80%) | A (control percentage ≧80%) | A (control percentage ≧80%) | A (control percentage ≧80%) | A (control percentage ≧80%) | C (control percentage <50%) | B (control percentage 50 to 79%) | A (control percentage ≧80%) | – | –
CCCCc1ccc2nc(C)c(C)c(OC(C)=O)c2c1 [Compound No. 29] | A (protective value ≧80%) | A (control percentage ≧80%) | B (control percentage 50 to 79%) | C (control percentage <50%) | B (control percentage 50 to 79%) | B (control percentage 50 to 79%) | B (control percentage 50 to 79%) | B (control percentage 50 to 79%) | A (control percentage ≧80%) | C (control percentage <50%) | C (control percentage <50%) | A (control percentage ≧80%) | B (protective value 50 to 79%) | –
CCC(C)c1cc(C=O)c2nc(C)c(C)c(OC(C)=O)c2c1 (stereo not drawn) [Compound No. 356, 4-acetoxy-6-s-butyl-8-formyl-2,3-dimethylquinoline] | – | – | – | – | – | – | – | – | – | – | – | – | A (protective value ≧80%) | > 80
